Legend:
[1] = Body weight and toxicity signals in CT26 syngeneic mouse model; type: in vivo; settings: treated individually or in combination, FIG. 24
Method: 2×10^5 CT26 cell lines were prepared in 50 μL culture medium and subcutaneously injected. […] The cGAMP solution was manufactured with a final composition of PEG400:distilled water=40:60, and 20 μL was injected each time. The solution of the compound of Formula 1 was manufactured with the composition of DMSO:PEG400:distilled water=2:40:58, and 20 μL was injected each time. The cGAMP solution was injected once every two days, four times in total, and the solution of the compound of Formula 1 was injected once every four days, two times in total, starting with the second administration of cGAMP. The size of the tumor was measured by using calipers every two days, and the volume thereof was calculated as (length×width×height/2). The body weight of the mice was also measured every two days.

[2] = tested on: phosphorylation of downstream signaling proteins TBK1 and IRF3; test: Western blotting of STING sub-immune signaling pathway activation; type: cell-based; settings: cGAMP alone; FIG. 7
Method: First, the A431 cell line was seeded in a transparent 12-well plate and cultured for one day. Thereafter, the cells were treated with the compounds of Formulas 1 to 6, respectively, and then cultured for additional 24 hours. Finally, after supernatant culture medium of the cells was removed, the remaining supernatant was diluted and removed with PBS (phosphate buffer saline) to prepare a Western blotting sample. All procedures for preparing Western blotting sample were performed at 4° C. […] The protein concentration of the supernatant was measured by using the Micro BCA™ protein assay kit (ThermoFisher) according to the protocol of the manufacturer. […] The treated samples were analyzed by SDS-PAGE, then transferred to a PVDF membrane, and cultured in a TBST solution containing 4% BSA for 30 minutes. […] Finally, after four TBST washing processes, the solution was developed with an ECL (enhanced chemiluminescence) prime solution of Amersham, the chemical luminescence signal was measured by using ChemiDoc MP of Bio-Rad Laboratories, Inc., the obtained results were quantified by using the ImageLab 6.0 program, and the results were plotted by using the Prism 8.0 program. […]

## Nc1nc2c(ncn2[C@@H]2O[C@@H]3COP(=O)(O)O[C@H]4[C@@H](O)[C@H](n5cnc6c(N)ncnc65)O[C@@H]4COP(=O)(O)O[C@@H]2[C@@H]3O)c(=O)[nH]1 [cGAMP, 2′,3′-Cyclic GMP-AMP, reference compound]
[1]
  body weight change or signal of toxicity: significant change in body weight or signal of toxicity was not observed
[2]
  phosphorylation of TBK1 and IRF3: increased

— patent publication US20250127778A1, “CANCER IMMUNOTHERAPY COMPOSITION CONTAINING INTERACTION INHIBITOR OF STING AND TRIM29 AS ACTIVE INGREDIENT” (SPARK BIOPHARMA, INC, priority 2021, published 2025)
